Measurements from patent US20090074926A1, “Preservation of acidic beverages” (PURAC BIOCHEM B.V., priority 2007, published 2009).
Read-outs that look alike come from different tables or passages of the source.

Key:
Format in all cases: cell-based
a collection of yeasts = conditions: pH 3.5
Description: Cultures were grown in GPY-broth that contained per liter demineralised-water: 40 g glucose, 5 g peptone and 5 g yeast extract, the pH of the medium to 3.5 with 2 N HCl. Cultures were grown in screw-capped tubes for at least 48 hours at 25° C. Pichia membranifaciens MUCL 27794, CBS 8427 and CBS 5567, Rhodotorula glutinis CBS 2367, Rhodotorula mucilaginosa CBS 8054 and CBS 2401 and Zygosaccharomyces bailii MUCL 27812 were cultured in shake flasks
The inhibition tests were carried out in sterile 96-well microtiter plates. Increasing amounts (0 to 100 μL in 10 steps of 10 μL) of a sterile stock solution of each compound were transferred to sterile microtiter plates. Next 100 μL of filter sterilized double strength GPY-broth was added and the volume of each well was adjusted to 200 μL with sterile demineralized-water. Plates were inoculated with 2 μL of two days old cultures and incubated for 96 hours at 25° C. Growth was quantified by measuring the optical density at 595 nm in a microplate reader. All the experiments were carried out in duplicate.

Saccharomyces cerevisiae = test: Screening of combinations of three ingredients, outgrowth in GPY-broth pH 3.5
Description: These combination tests were also carried out in sterile 96-well microtiter plates. Sterile GPY-broth was prepared with increasing quantities of inhibitors. For the first dimension the concentrations of the first inhibitor was presented in 8 equal concentration steps. For the second dimension a fixed ratio of two other inhibitors was chosen. This mixture was presented in 8 equal concentration steps resulting in 64 different media. […] of each medium was transferred to a panel of a sterile 96-well microtiter plate. Completed well plates were stored at 4° C. until further use. Plates were inoculated with 2 μL of two days old cultures and incubated for 96 hours at 25° C. Growth was quantified by measuring the optical density at 595 nm in a microplate reader and expressed as a percentage of the growth in the control, which contained no inhibitor. All the experiments were carried out in duplicate.

[1] = tested on: Schizosaccharomyces pombe; test: Screening of combinations of two inhibitors, outgrowth in GPY-broth pH 3.5
Description: These combination tests were carried out in sterile 96-well microtiter plates. Sterile GPY-broth was prepared with increasing quantities of two different inhibitors. The concentrations of each inhibitor were presented in 8 equal concentration steps that ranged from 0 to 1-2 times the MIC value of a particular yeast for a particular inhibitor resulting in 64 different media. […] of each medium was transferred to a panel of a sterile 96-well microtiter plate. Completed well plates were stored at 4° C. until further use.
Plates were inoculated with 2 μL of two days old cultures and incubated for 96 hours at 25° C. Growth was quantified by measuring the optical density at 595 nm in a microplate reader and expressed as a percentage of the growth in the control, which contained no inhibitor. All the experiments were carried out in duplicate.

## O=C(O)C=Cc1ccccc1 [Cinnamic acid, cinnamic acid]
A collection of yeasts; MIC values of a number of yeasts
  Comparison of inhibitory potency (in words): more effective than sorbic acid
A collection of yeasts; collection of yeasts
  MICavg (Average Minimal Inhibitory Concentration): 0.009 ± 0.007 % w/v
  MICmax (Maximum MIC): 0.03 % w/v
  MICmax/MICavg: 3.0
Saccharomyces cerevisiae; MCE 8060-ε-polylysine mixture (ratio 18.9) 0, cinnamic acid 0.002 (% w/v)
  Outgrowth (% of outgrowth at zero concentration inhibitor): 76%
Saccharomyces cerevisiae; MCE 8060-ε-polylysine mixture (ratio 18.9) 0, cinnamic acid 0.004 (% w/v)
  Outgrowth (% of outgrowth at zero concentration inhibitor): 44%
Saccharomyces cerevisiae; MCE 8060-ε-polylysine mixture (ratio 18.9) 0, cinnamic acid 0.006 (% w/v)
  Outgrowth (% of outgrowth at zero concentration inhibitor): 1%
Saccharomyces cerevisiae; MCE 8060-ε-polylysine mixture (ratio 18.9) 0, cinnamic acid 0.008 (% w/v)
  Outgrowth (% of outgrowth at zero concentration inhibitor): 0%
Saccharomyces cerevisiae; MCE 8060-ε-polylysine mixture (ratio 18.9) 0, cinnamic acid 0.01 (% w/v)
  Outgrowth (% of outgrowth at zero concentration inhibitor): 2%
Saccharomyces cerevisiae; MCE 8060-ε-polylysine mixture (ratio 18.9) 0, cinnamic acid 0.012 (% w/v)
  Outgrowth (% of outgrowth at zero concentration inhibitor): 1%
Saccharomyces cerevisiae; MCE 8060-ε-polylysine mixture (ratio 18.9) 0, cinnamic acid 0.014 (% w/v)
  Outgrowth (% of outgrowth at zero concentration inhibitor): 0%

## C/C=C/C=C/C(=O)[O-].[K+] [Potassium sorbate, potassium sorbate]
[1]; ε-polylysine 0, potassium sorbate 0.007 (% w/v)
  Outgrowth (% of outgrowth at zero concentration inhibitor): 81%
[1]; ε-polylysine 0, potassium sorbate 0.014 (% w/v)
  Outgrowth (% of outgrowth at zero concentration inhibitor): 69%
[1]; ε-polylysine 0, potassium sorbate 0.021 (% w/v)
  Outgrowth (% of outgrowth at zero concentration inhibitor): 56%
[1]; ε-polylysine 0, potassium sorbate 0.028 (% w/v)
  Outgrowth (% of outgrowth at zero concentration inhibitor): 44%
[1]; ε-polylysine 0, potassium sorbate 0.035 (% w/v)
  Outgrowth (% of outgrowth at zero concentration inhibitor): 30%
[1]; ε-polylysine 0, potassium sorbate 0.042 (% w/v)
  Outgrowth (% of outgrowth at zero concentration inhibitor): 20%
[1]; ε-polylysine 0, potassium sorbate 0.049 (% w/v)
  Outgrowth (% of outgrowth at zero concentration inhibitor): 7%

## C/C=C/C=C/C(=O)O [Sorbic acid]
A collection of yeasts
  MICavg (Average Minimal Inhibitory Concentration): 0.030 ± 0.020 % w/v
  MICmax (Maximum MIC): 0.07 % w/v
  MICmax/MICavg: 2.5
